The source made the active and inactive calls. The rule behind the calls is not given here.

In test [1] the test system is Streptococcus parasanguinis. Kind of test: Antibacterial activity against […] ATCC 903 assessed as effect on growth at 5 to 20 ug/ml after 24 hrs by microplate reader analysis. The test is classed as functional.
A further test concerns Streptococcus sobrinus. Kind of test: Antibacterial activity against Streptococcus sobrinus MT10186 assessed as effect on growth at 5 to 20 ug/ml after 24 hrs by microplate reader analysis. The test is classed as functional, organism-based.
For the next test, the system named is Streptococcus oralis. Kind of test: Antibacterial activity against Streptococcus oralis SK23 assessed as effect on growth at 5 to 20 ug/ml after 24 hrs by microplate reader analysis. It is filed as functional. The settings on record: ATCC 35037.
The subject of test [2] is Porphyromonas gingivalis. Briefly: Antibacterial activity against Porphyromonas gingivalis ATCC 33277 assessed as growth inhibition at 10 to 20 ug/ml after 100 hrs by microplate reader analysis. It is filed as functional, organism-based.
The test system of test [3] is Streptococcus mutans. Kind of test: Antibacterial activity against Streptococcus mutans MT8148 assessed as growth inhibition at 20 ug/ml after 24 hrs by microplate reader analysis. The test is classed as functional, organism-based.
Test [4] has as its system Porphyromonas gingivalis. Kind of test: Antibacterial activity against Porphyromonas gingivalis ATCC 33277 assessed as growth inhibition at 5 to 20 ug/ml after 100 hrs by microplate reader analysis. It is filed as functional, organism-based.
Test [5] has as its system Streptococcus mutans. Briefly: Antibacterial activity against Streptococcus mutans MT8148 assessed as growth inhibition at 5 to 20 ug/ml after 24 hrs by microplate reader analysis. The test is classed as functional, organism-based.

With `C=C[C@@]1(C)CC[C@]2(OC(=O)C=C2C)O1`, the outcome (in test [1]; in the test with Streptococcus sobrinus; in the test with Streptococcus oralis) was inactive.
On to `C=C(C)C(=O)CCC1(C)C2CC3C(C2)C31C` (stereo unspecified), for which the “growth inhibition (GI)” value in the test with Porphyromonas gingivalis [2] and in the test on Streptococcus mutans [3] was “Active” each time. Further, the outcome (in test [1]; in the test on Streptococcus sobrinus; in the test with Streptococcus oralis) was inactive.
In the case of `CC(C)(O)/C=C/CC1(C)C2CC3C(C2)C31C` (stereo unspecified), the “growth inhibition (GI)” value in the test on Porphyromonas gingivalis [4] and in the test on Streptococcus mutans [5] was “inactive” in each case. Further, the outcome (in test [1]; in the test on Streptococcus sobrinus; in the test with Streptococcus oralis) was inactive.
On to `CC12CC(=O)O[C@H]3CC1CC[C@]32C`, for which the outcome (in test [1]; with Streptococcus sobrinus; in the test with Streptococcus oralis) was inactive.

Source of the values: ChEMBL document CHEMBL3580654, “Tetranorsesquiterpenoids and Santalane-Type Sesquiterpenoids from Illicium lanceolatum and Their Antimicrobial Activity against the Oral Pathogen Porphyromonas gingivalis” (J Nat Prod, 2015).
